Assay results: PubChem BioAssay AID2060487 (Molecular Pharmacology Branch, DTP, NCI, 2025)

System: 997537-175-T-J1-PDC complex spheroid viability
Assay: Anticancer human tumor 997537-175-T-J1-PDC patient-derived colon adenocarcinoma cell line growth inhibition [GQUAD]
Settings: for IC50: curve of first compound; for viability, T/C: stronger effect = lower value
How it was run: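 Tumor cells were grown as complex spheroids with HUVEC endothelial cells and mesenchymal stem cells as stroma. G-quadruplex stabilizers were combined with targeted agents over half-log dilutions from near the clinical Cmax, or from 10 microM.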

[1] = second compound 0.0316 µM, first compound 0.0316 µM
[2] = second compound 0.0316 µM, first compound 0.1 µM
[3] = second compound 0.0316 µM, first compound 0.316 µM
[4] = second compound 0.0316 µM, first compound 1 µM
[5] = second compound 0.0316 µM, first compound 3.16 µM
[6] = second compound 0.0316 µM, first compound 10 µM
[7] = second compound 0.1 µM, first compound 0.0316 µM
[8] = second compound 0.1 µM, first compound 0.1 µM
[9] = second compound 0.1 µM, first compound 0.316 µM
[10] = second compound 0.1 µM, first compound 1 µM
[11] = second compound 0.1 µM, first compound 3.16 µM
[12] = second compound 0.1 µM, first compound 10 µM
[13] = second compound 0.316 µM, first compound 0.0316 µM
[14] = second compound 0.316 µM, first compound 0.1 µM
[15] = second compound 0.316 µM, first compound 0.316 µM
[16] = second compound 0.316 µM, first compound 1 µM
[17] = second compound 0.316 µM, first compound 3.16 µM
[18] = second compound 0.316 µM, first compound 10 µM
[19] = second compound 1 µM, first compound 0.0316 µM
[20] = second compound 1 µM, first compound 0.1 µM
[21] = second compound 1 µM, first compound 0.316 µM
[22] = second compound 1 µM, first compound 1 µM
[23] = second compound 1 µM, first compound 3.16 µM
[24] = second compound 1 µM, first compound 10 µM
[25] = second compound 3.16 µM, first compound 0.0316 µM
[26] = second compound 3.16 µM, first compound 0.1 µM
[27] = second compound 3.16 µM, first compound 0.316 µM
[28] = second compound 3.16 µM, first compound 1 µM
[29] = second compound 3.16 µM, first compound 3.16 µM
[30] = second compound 3.16 µM, first compound 10 µM
[31] = second compound 10 µM, first compound 0.0316 µM
[32] = second compound 10 µM, first compound 0.1 µM
[33] = second compound 10 µM, first compound 0.316 µM
[34] = second compound 10 µM, first compound 1 µM
[35] = second compound 10 µM, first compound 3.16 µM
[36] = second compound 10 µM, first compound 10 µM
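Note: spheroids exposed to the agents for 7 days.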
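Throughout, for viability, T/C: 100% = DMSO vehicle control viability.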

O=C(NO)c1cnc(N2CCN(S(=O)(=O)c3ccc4ccccc4c3)CC2)nc1 + CN(C)c1ccc(Nc2c3ccc(NC(=O)CCN4CCCC4)cc3nc3cc(NC(=O)CCN4CCCC4)ccc23)cc1
IC50 (second compound 0.0316 µM): 2410 nM
IC50 (second compound 0.1 µM): 1440 nM
IC50 (second compound 0.316 µM): 2040 nM
IC50 (second compound 1 µM): 1530 nM
IC50 (second compound 3.16 µM): 1610 nM
IC50 (second compound 10 µM): 2120 nM
viability, T/C [1]: 96%
viability, T/C [2]: 88.2%
viability, T/C [3]: 105%
viability, T/C [4]: 76.5%
viability, T/C [5]: 41.6%
viability, T/C [6]: 0.32%
viability, T/C [7]: 112%
viability, T/C [8]: 90.9%
viability, T/C [9]: 91%
viability, T/C [10]: 66.8%
viability, T/C [11]: 18%
viability, T/C [12]: 0.22%
viability, T/C [13]: 94.3%
viability, T/C [14]: 97.8%
viability, T/C [15]: 82.1%
viability, T/C [16]: 82.4%
viability, T/C [17]: 30.8%
viability, T/C [18]: 0.23%
viability, T/C [19]: 69.8%
viability, T/C [20]: 86.4%
viability, T/C [21]: 98.9%
viability, T/C [22]: 77.8%
viability, T/C [23]: 3.02%
viability, T/C [24]: 0.59%
viability, T/C [25]: 63.6%
viability, T/C [26]: 105%
viability, T/C [27]: 105%
viability, T/C [28]: 84.1%
viability, T/C [29]: 1.75%
viability, T/C [30]: 0.47%
viability, T/C [31]: 83.4%
viability, T/C [32]: 90%
viability, T/C [33]: 95.6%
viability, T/C [34]: 79%
viability, T/C [35]: 34.1%
viability, T/C [36]: 0.44%

CC1COCCN1c1cc(-c2ccnn2C)c2ccnc(-c3ccn[nH]3)c2n1 (stereo not drawn) + Cc1[nH]c2ccc(F)cc2c1-c1nc2c3cccnc3c3ncccc3c2[nH]1
IC50 (second compound 0.0316 µM): 209 nM
IC50 (second compound 0.1 µM): 287 nM
IC50 (second compound 0.316 µM): 288 nM
IC50 (second compound 1 µM): 376 nM
IC50 (second compound 3.16 µM): 179 nM
IC50 (second compound 10 µM): 113 nM
viability, T/C [1]: 82.8%
viability, T/C [2]: 66.7%
viability, T/C [3]: 36.5%
viability, T/C [4]: 28.3%
viability, T/C [5]: 35%
viability, T/C [6]: 62.5%
viability, T/C [7]: 86.1%
viability, T/C [8]: 64.5%
viability, T/C [9]: 57.3%
viability, T/C [10]: 24.7%
viability, T/C [11]: 37.3%
viability, T/C [12]: 46.5%
viability, T/C [13]: 76.7%
viability, T/C [14]: 58.5%
viability, T/C [15]: 57.4%
viability, T/C [16]: 32.5%
viability, T/C [17]: 36.4%
viability, T/C [18]: 46.4%
viability, T/C [19]: 60.4%
viability, T/C [20]: 56.1%
viability, T/C [21]: 51.6%
viability, T/C [22]: 21.6%
viability, T/C [23]: 42.6%
viability, T/C [24]: 57.9%
viability, T/C [25]: 54.8%
viability, T/C [26]: 70.2%
viability, T/C [27]: 29.2%
viability, T/C [28]: 40.8%
viability, T/C [29]: 33.8%
viability, T/C [30]: 47%
viability, T/C [31]: 65.8%
viability, T/C [32]: 55.3%
viability, T/C [33]: 36.4%
viability, T/C [34]: 42.5%
viability, T/C [35]: 52.3%
viability, T/C [36]: 47.9%

CC1COCCN1c1cc(C2(O)CC3CCC(C2)O3)c2cnn(-c3ccn[nH]3)c2n1 (stereo not drawn) + Cc1[nH]c2ccc(F)cc2c1-c1nc2c3cccnc3c3ncccc3c2[nH]1
IC50 (second compound 0.0316 µM): 303 nM
IC50 (second compound 0.1 µM): 355 nM
IC50 (second compound 0.316 µM): 305 nM
IC50 (second compound 1 µM): 155 nM
IC50 (second compound 3.16 µM): < 31.6 nM
IC50 (second compound 10 µM): 74.6 nM
viability, T/C [1]: 74.3%
viability, T/C [2]: 56.8%
viability, T/C [3]: 62.4%
viability, T/C [4]: 22.3%
viability, T/C [5]: 40.2%
viability, T/C [6]: 56%
viability, T/C [7]: 75.3%
viability, T/C [8]: 59.5%
viability, T/C [9]: 57.9%
viability, T/C [10]: 32.7%
viability, T/C [11]: 45.4%
viability, T/C [12]: 52.7%
viability, T/C [13]: 78.7%
viability, T/C [14]: 61.9%
viability, T/C [15]: 45.5%
viability, T/C [16]: 38.6%
viability, T/C [17]: 54%
viability, T/C [18]: 60.4%
viability, T/C [19]: 54.7%
viability, T/C [20]: 57.6%
viability, T/C [21]: 44.9%
viability, T/C [22]: 40.8%
viability, T/C [23]: 38.7%
viability, T/C [24]: 61.4%
viability, T/C [25]: 55.1%
viability, T/C [26]: 34.3%
viability, T/C [27]: 44%
viability, T/C [28]: 29.2%
viability, T/C [29]: 44.5%
viability, T/C [30]: 60.4%
viability, T/C [31]: 61.2%
viability, T/C [32]: 44.8%
viability, T/C [33]: 42.5%
viability, T/C [34]: 43.6%
viability, T/C [35]: 31.9%
viability, T/C [36]: 41.3%

CC1COCCN1c1cc(C2(S(C)(=N)=O)CC2)nc(-c2ccnc3[nH]ccc23)n1 (stereo not drawn) + Cc1[nH]c2ccc(F)cc2c1-c1nc2c3cccnc3c3ncccc3c2[nH]1
IC50 (second compound 0.0316 µM): 9530 nM
IC50 (second compound 0.1 µM): 6250 nM
IC50 (second compound 0.316 µM): > 10000 nM
IC50 (second compound 1 µM): > 10000 nM
IC50 (second compound 3.16 µM): 6510 nM
IC50 (second compound 10 µM): > 10000 nM
viability, T/C [1]: 96.7%
viability, T/C [2]: 83.8%
viability, T/C [3]: 76.3%
viability, T/C [4]: 71.9%
viability, T/C [5]: 62.9%
viability, T/C [6]: 47.5%
viability, T/C [7]: 95.8%
viability, T/C [8]: 86.2%
viability, T/C [9]: 82.4%
viability, T/C [10]: 77.6%
viability, T/C [11]: 70.3%
viability, T/C [12]: 37.4%
viability, T/C [13]: 107%
viability, T/C [14]: 73.8%
viability, T/C [15]: 69.7%
viability, T/C [16]: 70%
viability, T/C [17]: 62.3%
viability, T/C [18]: 49.3%
viability, T/C [19]: 80.3%
viability, T/C [20]: 46.2%
viability, T/C [21]: 76.8%
viability, T/C [22]: 94%
viability, T/C [23]: 72.5%
viability, T/C [24]: 60.6%
viability, T/C [25]: 59.7%
viability, T/C [26]: 79.8%
viability, T/C [27]: 66.1%
viability, T/C [28]: 55.8%
viability, T/C [29]: 71%
viability, T/C [30]: 40.4%
viability, T/C [31]: 63.7%
viability, T/C [32]: 76.2%
viability, T/C [33]: 72.2%
viability, T/C [34]: 71.2%
viability, T/C [35]: 64.5%
viability, T/C [36]: 74.8%
